# Experimental data taken from US20190307731A1, “ARYL HYDROCARBON RECEPTOR MODULATOR” (Ariagen, Inc., priority 2016, published 2019).
# Like-named read-outs stand apart in the source and are kept apart here.
# Molecular target: T1, native (Human Hepatoma Huh-7) AhR receptor (Homo sapiens, UniProt P35869)
# T1 construct: expression of native (Human Hepatoma Huh-7) AhR receptor reporter gene cells; endogenous in cells; host or cells: Human hepatoma Huh-7 cells carrying a firefly luciferase reporter vector
# T1 sequence (P35869 11-848): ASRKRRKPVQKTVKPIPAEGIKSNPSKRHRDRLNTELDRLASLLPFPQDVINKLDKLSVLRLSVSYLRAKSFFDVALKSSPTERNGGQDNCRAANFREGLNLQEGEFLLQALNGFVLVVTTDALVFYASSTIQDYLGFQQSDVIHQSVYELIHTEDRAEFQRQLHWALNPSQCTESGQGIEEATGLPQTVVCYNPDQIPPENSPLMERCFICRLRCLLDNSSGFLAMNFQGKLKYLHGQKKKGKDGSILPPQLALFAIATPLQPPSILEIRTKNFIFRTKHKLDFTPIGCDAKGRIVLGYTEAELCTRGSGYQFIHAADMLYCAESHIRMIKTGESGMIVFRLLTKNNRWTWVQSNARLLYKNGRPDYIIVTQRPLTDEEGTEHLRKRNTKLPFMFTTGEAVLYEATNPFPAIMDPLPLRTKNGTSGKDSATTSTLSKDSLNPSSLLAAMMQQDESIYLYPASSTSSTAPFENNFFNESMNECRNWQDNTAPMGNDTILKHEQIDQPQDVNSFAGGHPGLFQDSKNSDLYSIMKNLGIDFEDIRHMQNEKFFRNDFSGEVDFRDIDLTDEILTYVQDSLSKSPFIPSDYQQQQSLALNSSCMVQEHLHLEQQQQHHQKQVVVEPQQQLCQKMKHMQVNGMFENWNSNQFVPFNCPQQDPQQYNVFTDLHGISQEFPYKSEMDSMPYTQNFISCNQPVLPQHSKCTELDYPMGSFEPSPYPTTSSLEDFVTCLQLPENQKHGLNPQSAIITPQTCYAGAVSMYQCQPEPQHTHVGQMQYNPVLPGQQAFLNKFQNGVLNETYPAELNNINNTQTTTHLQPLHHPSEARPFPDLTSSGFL
# Test: AhR agonism assay (luciferase reporter gene cells)
# Type: cell-based
# Experimental: Assay Materials (plasmids): expression of native (Human Hepatoma Huh-7) AhR receptor reporter gene cells, the reporter vector includes functional firefly luciferase gene linked to upstream receptor-specific genetic response elements (GRE).
# The AhR agonism assay comprises the following three steps:
# 1. Cell implantation: a suspension of AhR receptor cells was prepared in cell recovery medium (CRM; FBS containing 10% activated carbon). Then, the prepared suspension (100 μl) was dispensed into wells of a white 96-well culture plate.
# 2. Right before the beginning of the experiment, Master Stocks were diluted to “2× concentration” treatment media with appropriate compound screening media (CSM: FBS containing 10% activated carbon). The test compounds were subjected to gradient dilution with CSM medium containing 0.2% DMSO, so that the final concentration of DMSO in each experimental well for each treatment group was 0.1%. […] The experimental plate was placed in an incubator at 37° C. for 24 h.
# 3. Fluorescence detection and analysis: after completion of the incubation, the treatment media were discarded and 100 μL/well of luciferase detection reagent was added. The Ave RLU (average relative fluorescence intensity) of each well and the coefficient of variation for each experimental group were determined. The activity of AhR receptor with various concentrations of the test compounds was quantitatively determined using a ratio of Ave RLU^Test Cmpd of various concentrations of the test compounds in the experimental group to Ave RLU^Vehicle of the blank control group, and fold activation and EC50 were determined.
# For data processing method, refer to J. Biomol.
"EC50 (AhR receptor reporter gene cells, 24 h incubation at 37° C., luciferase readout, read-out: EC50) [µM]",SMILES,EC50 [µM]
10 to 100,CC(C)c1ncc(C(=O)c2c[nH]c3ccccc23)s1 [Compound 10],
,COC(=O)c1nsc(C(=O)c2c[nH]c3ccc(F)cc23)n1 [Compound 13],1 to 10
,COC(=O)c1nsc(C(=O)c2c[nH]c3ccc(OC)cc23)n1 [Compound 14],1 to 10
